Earlier results in patent publication US10543293B2, “Medical dressing” (BSN MEDICAL GMBH, priority 2013, dated 2020).

Experiments:
human fibroblasts = conditions: NO concentrations employed in vitro
endothelial cells = conditions: NO concentrations employed in vitro; human endothelial cells
[1] = generally assumed
keratinocytes = conditions: NO concentrations employed in vitro; human keratinocytes

In the case of `[N]=O` [NO, nitric oxide], the toxic effects (human fibroblasts) is listed as “did not display any toxic effects”, the toxic effects (endothelial cells) is listed as “did not display any toxic effects” and the “maximum solubility of NO in aqueous solutions” value [1] is listed as “approximately 2 mM”. For the same compound, the “diffusion coefficient of NO relative to oxygen or carbon monoxide” value (at 37° C., higher than that of oxygen or carbon monoxide) was “approximately 1.4 times”, the “diffusion path that can be achieved in the tissues” value (calculated on the basis of the diffusion coefficient) was 500 μm and the toxic effects (keratinocytes) was “did not display any toxic effects”.
